We go through 10 molecules from ChEMBL document CHEMBL1156341, “Synthesis of new artemisinin analogues from artemisinic acid modified at C-3 and C-13 and their antimalarial activity” (J Nat Prod, 2001).

Values after ≈ are worked out from the molar mass of the structure shown.

For test [1], the system named is Plasmodium falciparum. Description: Antimalarial activity against chloroquine-resistant Plasmodium falciparum W2. The format is functional, organism-based.
Test [2] relates to Plasmodium falciparum. As to the kind of experiment: Antimalarial activity against chloroquine-sensitive Plasmodium falciparum D6. The format is functional, organism-based.
The nature of test [3]: Cytotoxicity against human vinblastine-resistant KBVIN cells in presence of vinblastine. Format: functional, cell-based.

Broadly, the IC50 is the concentration needed to halve the response being measured.

In turn, `OC(c1cc(C(F)(F)F)nc2c(C(F)(F)F)cccc12)C1CCCCN1` (centres undefined) [MEFLOQUINE] displayed a concentration for half-maximal inhibition (IC50) in the test with Plasmodium falciparum [1] of 3.6 ng/mL (≈ 0.00952 µM). As to `COC(=O)C[C@H]1C(=O)O[C@@H]2O[C@@]3(C)CC[C@H]4[C@H](C)CC[C@@H]1[C@@]24OO3`, the half-maximal inhibitory concentration (IC50) was 33 ng/mL (≈ 0.097 µM) with Plasmodium falciparum [1] and 46 ng/mL (≈ 0.135 µM) in the test on Plasmodium falciparum [2]. The corresponding values for `COC[C@H]1C(=O)O[C@@H]2O[C@@]3(C)CC[C@H]4[C@H](C)CC[C@@H]1[C@@]24OO3` are 59 ng/mL (≈ 0.189 µM) and 75 ng/mL (≈ 0.24 µM).

In the case of `C[C@@H]1CC[C@H]2[C@@H](C)C(=O)O[C@@H]3O[C@@]4(C)CC[C@@H]1[C@]32OO4` [ARTEMISININ], the IC50 in the test on Plasmodium falciparum [1] amounted to 0.2 ng/mL (≈ 0.000708 µM).

On to `CCS(=O)(=O)C[C@H]1C(=O)O[C@@H]2O[C@@]3(C)CC[C@H]4[C@H](C)CC[C@@H]1[C@@]24OO3`, for which the 50% inhibitory concentration (IC50) with Plasmodium falciparum [1] and in the test on Plasmodium falciparum [2] was over 500 ng/mL each time. On to `C[C@@H]1CC[C@H]2[C@@H](CC[N+](=O)[O-])C(=O)O[C@@H]3O[C@@]4(C)CC[C@@H]1[C@]32OO4`, for which the values for the half-maximal inhibitory concentration (IC50) (in the test with Plasmodium falciparum [1]; in test [3]; in the test on Plasmodium falciparum [2]) were 0.26 ng/mL (≈ 0.000762 µM), 5.1 ng/mL and 0.68 ng/mL (≈ 0.00199 µM), respectively. As for `C=C[C@H]1CN2CC[C@H]1C[C@H]2[C@H](O)c1ccnc2ccc(OC)cc12` [QUININE], the IC50 with Plasmodium falciparum [1] is 102 ng/mL (≈ 0.314 µM); in the test on Plasmodium falciparum [2], 19.6 ng/mL (≈ 0.0604 µM). `C[C@@H]1CC[C@H]2C(=C3CC3)C(=O)O[C@@H]3O[C@@]4(C)CC[C@@H]1[C@]32OO4`: the values for the IC50 with Plasmodium falciparum [1] and in the test with Plasmodium falciparum [2] were 4.3 ng/mL (≈ 0.014 µM) and 6.2 ng/mL (≈ 0.0202 µM), respectively.

For `CC(=O)O[C@@H]1C[C@H]2[C@H](C)CC[C@H]3[C@@H](C)C(=O)O[C@@H]4O[C@]1(C)OO[C@]423`, the concentration for half-maximal inhibition (IC50) with Plasmodium falciparum [1] was 2.07 ng/mL (≈ 0.00608 µM); with Plasmodium falciparum [2], 11.1 ng/mL (≈ 0.0326 µM).

For the molecule `C[C@@H]1CC[C@H]2[C@@H](CC#N)C(=O)O[C@@H]3O[C@@]4(C)CC[C@@H]1[C@]32OO4`, the results for the half-inhibitory concentration (IC50) in the test on Plasmodium falciparum [1] and in the test with Plasmodium falciparum [2] were 8.4 ng/mL (≈ 0.0273 µM) and 18.4 ng/mL (≈ 0.0599 µM), respectively.
